Laboratory results as given in US9072293B2, “Cyclopropenes and method for applying cyclopropenes to agricultural products or crops” (Erum Biotechnologies Inc., priority 2010, dated 2015).
Where “and” joins values, the source holds several entries; their conditions need not be identical. Identical values can stand only once.

Tests used:
tomato [1] = experiment: Experimental Example 1: Efficacy test on tomato using emulsion (reddening grade); assay type: in vivo; set-up: key: an area in which the surface of tomato was colored in pink was 10% or less; an area in which the surface of tomato was completely colored in red was 10 to 40%; 2: an area in which the surface of tomato was completely colored in red was 40 to 70%; 3: an area in which the surface of tomato was completely colored in red was 70% or more and the bottom area remained green; 4: an area in which the surface of tomato was most colored in red and only a part of (0 to 10%) the bottom area remained green; 5: the surface of tomato did not entirely color in green; conditions: individual tomatoes n=4
Experimental: In situ, a 1.0 mM 1-octylcyclopropene formulation was prepared using (trans)-1-octyl-1-(methanesulfonyloxy)-2-(trimethylsilyl)cyclopropane of Preparation Example 10 in the same manner as in Example 7. This solution was diluted to 1 to 100 times prior to use, as necessary. Experimental Example 1: Efficacy test on tomato using emulsion 1.0 mM formulations of five agents such as 1-(2-phenylethyl)cyclopropene, 1-(3-phenylpropyl)cyclopropene, 1-(4-phenylbutyl)cyclopropene, 1-(5-phenylpentyl)cyclopropene and 1-hexylcyclopropene were prepared in the same manner as in Example 1, and 1.0 mM and 100 μM solutions were prepared therefrom. Then, the effects of the solutions were compared with non-treated groups and control groups in which a surfactant or a stabilizing agent (sodium dodecylbenzenesulfonate or tristyrenylphenykethoxy)12ethanol) is dissolved.
Tomatoes whose top end began to turn pink were screened, harvested and divided into 12 groups (n=4) in total, i.e., non-treated groups, control groups (surfactant) and agent groups with different concentrations such as 100 μM and 1.0 mM. Tomatoes were treated with the prepared agent formulation using a household sprayer such that the surface thereof was saturated. The tomatoes were stood at room temperature (25-30° C.) for 3 days and a reddening level thereof was evaluated based on grades of 0 to 5.
(§1) At this time, the tops of tomatoes most early turned red, while the bottoms thereof most lately turned red. For this reason, in order to accurately evaluate the difference in reddening, the coloring evaluated was based on the area of red color, rather than the color of tomatoes. […] Accordingly, the grade level is proportional to the rate at which the tomatoes ripened.

tomato [2] = experiment: Experimental Example 2: Efficacy test on tomato using oil based formulation (reddening grade); assay type: in vivo; set-up: key: an area in which the surface of tomato was colored in pink was 10% or less; an area in which the surface of tomato was completely colored in red was 10 to 40%; 2: an area in which the surface of tomato was completely colored in red was 40 to 70%; 3: an area in which the surface of tomato was completely colored in red was 70% or more and the bottom area remained green; 4: an area in which the surface of tomato was most colored in red and only a part of (0 to 10%) the bottom area remained green; 5: the surface of tomato did not entirely color in green; conditions: 1.0 mM oil-based formulation, individual tomatoes n=4
Text: as §1
As illustrated in Example 1, in situ, in accordance with the methods of Preparation Examples 15, 16, 17, 18 and 22, five agents (1.0 mmol) such as 1-(2-phenylethyl)cyclopropene, 1-(3-phenylpropyl)cyclopropene, 1-(4-phenylbutyl)cyclopropene, 1-(5-phenylpentyl)cyclopropene and 1-hexylcyclopropene were prepared, 5.0 ml of xylene and 5.0 ml of water were added to the reaction solution, vigorously stirred for 5 minutes and stood. When the mixture was separated into an organic layer (upper layer) and an aqueous layer (lower layer), only the organic layer was collected and the aqueous layer was discarded. […] of hexane was added to the organic layer and homogeneously mixed to prepare a 1.0 mM oil-based formulation.
The tomatoes were screened in the same manner as in Experimental Example 1 and divided into 7 groups (n=4) including a non-treated group, a control group (solvent-treated group) and 5 agent groups. Tomatoes were treated with the previously prepared agent using a household sprayer such that the surface thereof was saturated. The tomatoes were stood at room temperature (25-30° C.) for 3 days and a reddening level thereof was evaluated based on grades of 0 to 5.

With `CCCCCCC1=CC1` [(Hexyl), 1-hexylcyclopropene, reference compound] the “reddening level (grade 0 to 5)” value (tomato [1]; 100 μM, Day 0, room temperature (25-30° C.)) was 0 (an area in which the surface of tomato was colored in pink was 10% or less) (2×) and 1 (an area in which the surface of tomato was completely colored in red was 10 to 40%) and 2 (an area in which the surface of tomato was completely colored in red was 40 to 70%), the “reddening level (grade 0 to 5)” value (tomato [1]; 100 μM, Day 1, room temperature (25-30° C.)) was 1 (an area in which the surface of tomato was completely colored in red was 10 to 40%) (2×) and 3 (an area in which the surface of tomato was completely colored in red was 70% or more and the bottom area remained green) and 4 and the “reddening level (grade 0 to 5)” value (tomato [1]; 100 μM, Day 2, room temperature (25-30° C.)) was 3 (an area in which the surface of tomato was completely colored in red was 70% or more and the bottom area remained green) (2×) and 4 and 5. The “reddening level (grade 0 to 5)” value (tomato [1]; 100 μM, Day 3, room temperature (25-30° C.)) was 4 and 5 (3×), the “reddening level (grade 0 to 5)” value (tomato [1]; 1.0 mM, Day 0, room temperature (25-30° C.)) was 0 (an area in which the surface of tomato was colored in pink was 10% or less) (2×) and 1 (an area in which the surface of tomato was completely colored in red was 10 to 40%) and 2 (an area in which the surface of tomato was completely colored in red was 40 to 70%) and the “reddening level (grade 0 to 5)” value (tomato [1]; 1.0 mM, Day 1, room temperature (25-30° C.)) was 1 (an area in which the surface of tomato was completely colored in red was 10 to 40%) (2×) and 2 (an area in which the surface of tomato was completely colored in red was 40 to 70%) and 3 (an area in which the surface of tomato was completely colored in red was 70% or more and the bottom area remained green). The “reddening level (grade 0 to 5)” value (tomato [1]; 1.0 mM, Day 2, room temperature (25-30° C.)) was 2 (an area in which the surface of tomato was completely colored in red was 40 to 70%) (2×) and 3 (an area in which the surface of tomato was completely colored in red was 70% or more and the bottom area remained green) and 4, the “reddening level (grade 0 to 5)” value (tomato [1]; 1.0 mM, Day 3, room temperature (25-30° C.)) was 3 (an area in which the surface of tomato was completely colored in red was 70% or more and the bottom area remained green) (2×) and 5 (2×) and the “Tomato results: reddening level (grade 0 to 5)” value (“Tomato results: reddening level” below) (tomato [2]; Day 0, room temperature (25-30° C.)) was 0 (an area in which the surface of tomato was colored in pink was 10% or less) (2×) and 1 (an area in which the surface of tomato was completely colored in red was 10 to 40%) and 2 (an area in which the surface of tomato was completely colored in red was 40 to 70%). The “Tomato results: reddening level” value (tomato [2]; Day 1, room temperature (25-30° C.)) was 1 (an area in which the surface of tomato was completely colored in red was 10 to 40%) (2×) and 2 (an area in which the surface of tomato was completely colored in red was 40 to 70%) and 3 (an area in which the surface of tomato was completely colored in red was 70% or more and the bottom area remained green), the “Tomato results: reddening level” value (tomato [2]; Day 2, room temperature (25-30° C.)) was 3 (an area in which the surface of tomato was completely colored in red was 70% or more and the bottom area remained green) and 2 (an area in which the surface of tomato was completely colored in red was 40 to 70%) and 4 and 5 and the “Tomato results: reddening level” value (tomato [2]; Day 3, room temperature (25-30° C.)) was 4 (2×) and 5 (2×).
